Measured values taken from PubChem BioAssay AID248 (DTP/NCI, 2004).
Where “and” joins values, the source holds several entries; their conditions need not be identical. Identical values can stand only once. Inconclusive results and toxic doses are left out. Rule as the data show it: active = T/C of 150% or more; inactive = T/C below 125%.

Tested on: L1210 leukemia ip in BDF1 mice, survival T/C
Experiment: NCI In Vivo Anticancer Drug Screen. Data for tumor model L1210 Leukemia (intraperitoneal) in B6D2F1 (BDF1) mice
Conditions: endpoint: mean survival time, higher = longer survival
Outline: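 Value reflects the ratio of survival in compound-treated mice to survival in vehicle-treated controls, with both groups carrying the same transplanted tumor.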

[1] = dose: 100.0 mg/kg/injection, schedule: Q01DX001 (ip), vehicle: saline
[2] = dose: 200.0 mg/kg/injection, schedule: Q01DX001 (ip), vehicle: saline
[3] = dose: 400.0 mg/kg/injection, schedule: Q01DX001 (ip), vehicle: saline
[4] = dose: 100.0 mg/kg/injection, schedule: Q04DX003 (ip), vehicle: saline with Tween-80
[5] = dose: 200.0 mg/kg/injection, schedule: Q04DX003 (ip), vehicle: saline with Tween-80
[6] = dose: 400.0 mg/kg/injection, schedule: Q04DX003 (ip), vehicle: saline with Tween-80
[7] = dose: 100.0 mg/kg/injection, schedule: Q04DX003 (ip), vehicle: Klucel (hydroxypropylcellulose) (HPC)
[8] = dose: 200.0 mg/kg/injection, schedule: Q04DX003 (ip), vehicle: Klucel (hydroxypropylcellulose) (HPC)
[9] = dose: 50.0 mg/kg/injection, schedule: Q01DX009 (ip), vehicle: saline with Tween-80
[10] = dose: 100.0 mg/kg/injection, schedule: Q01DX009 (ip), vehicle: saline with Tween-80
[11] = dose: 200.0 mg/kg/injection, schedule: Q01DX009 (ip), vehicle: saline with Tween-80
[12] = dose: 400.0 mg/kg/injection, schedule: Q04DX003 (ip), vehicle: Klucel (hydroxypropylcellulose) (HPC)

Measured: T/C

CN(C)/C=N\c1ncnc2c1ncn2C1OC(CO)C2OC(C)(C)OC21 (centres undefined)
inactive: dose: 100.0 mg/kg/injection, schedule: Q01DX005 (ip), vehicle: saline 104 % of control | dose: 200.0 mg/kg/injection, schedule: Q01DX005 (ip), vehicle: saline 103 % of control

CC1COP(Oc2ccccc2)O1 (centres undefined)
inactive: [1] 113 % of control | [2] 115 % of control | [3] 96 % of control

Cc1ccc(NCc2nc(N)nc(Nc3ccc(C)cc3)n2)cc1
inactive: [4] 93 % of control | [5] 101 % of control | [6] 97 % of control

CN(C)C=Nc1ccc(Cl)c2ccccc12
inactive: dose: 100.0 mg/kg/injection, schedule: Q01DX001 (ip), vehicle: Klucel (hydroxypropylcellulose) (HPC) 99 % of control | [7] 98 % of control | dose: 200.0 mg/kg/injection, schedule: Q01DX001 (ip), vehicle: Klucel (hydroxypropylcellulose) (HPC) 96 % of control | [8] 101 % of control | dose: 400.0 mg/kg/injection, schedule: Q01DX001 (ip), vehicle: Klucel (hydroxypropylcellulose) (HPC) 97 % of control

Cc1nc(N)[nH]c(=O)c1CCCOc1ccccc1
inactive: dose: 50.0 mg/kg/injection, schedule: Q01DX Z (ip), vehicle: carboxymethylcellulose (CMC) 95 % of control | dose: 100.0 mg/kg/injection, schedule: Q01DX Z (ip), vehicle: carboxymethylcellulose (CMC) 93 % of control | dose: 200.0 mg/kg/injection, schedule: Q01DX Z (ip), vehicle: carboxymethylcellulose (CMC) 93 % of control | dose: 400.0 mg/kg/injection, schedule: Q01DX Z (ip), vehicle: carboxymethylcellulose (CMC) 93 % of control

COc1ccc(OC)c(/C=C/c2cccn[n+]2C)c1
inactive: [9] 101 % of control | [10] 114 % of control

Clc1ccc(NC2=NCCO2)cc1Cl
inactive: dose: 44.0 mg/kg/injection, schedule: Q04DX003 (ip), vehicle: saline with Tween-80 101 % of control | dose: 66.0 mg/kg/injection, schedule: Q04DX003 (ip), vehicle: saline with Tween-80 103 % of control | dose: 150.0 mg/kg/injection, schedule: Q04DX003 (ip), vehicle: saline with Tween-80 93 % of control | [5] 92 % of control | [6] 94 % of control

O=C(O)/C=C/Sc1ccc(Cl)cc1
inactive: [9] 94 % of control | [10] 94 % of control | dose: 100.0 mg/kg/injection, schedule: Q04DX002 (ip), vehicle: saline with Tween-80 95 % of control | [11] 94 % of control | dose: 200.0 mg/kg/injection, schedule: Q04DX002 (ip), vehicle: saline with Tween-80 92 % of control

CN1CCC(=O)N1
inactive: [1] 100 % of control | [2] 100 % of control | [3] 98 % of control

O=c1[nH]cnc2[nH]cc([N+](=O)[O-])c12
inactive: dose: 50.0 mg/kg/injection, schedule: Q01DX001 (ip), vehicle: carboxymethylcellulose (CMC) 101 % of control | dose: 100.0 mg/kg/injection, schedule: Q01DX001 (ip), vehicle: carboxymethylcellulose (CMC) 89 % of control | dose: 200.0 mg/kg/injection, schedule: Q01DX001 (ip), vehicle: carboxymethylcellulose (CMC) 98 % of control and 87 % of control | dose: 400.0 mg/kg/injection, schedule: Q01DX001 (ip), vehicle: carboxymethylcellulose (CMC) 93 % of control and 97 % of control

CN(CCC(=O)c1ccccc1)CCC(=O)c1ccccc1
inactive: dose: 100.0 mg/kg/injection, schedule: Q01DX001 (ip), vehicle: saline with Tween-80 93 % of control | dose: 200.0 mg/kg/injection, schedule: Q01DX001 (ip), vehicle: saline with Tween-80 94 % of control

CCCCOc1ccc(OC(=O)Nc2cc(C)ccc2C)cc1
inactive: dose: 100.0 mg/kg/injection, schedule: Q01DX009 (ip), vehicle: Klucel (hydroxypropylcellulose) (HPC) 91 % of control | [7] 108 % of control | dose: 200.0 mg/kg/injection, schedule: Q01DX009 (ip), vehicle: Klucel (hydroxypropylcellulose) (HPC) 96 % of control | [8] 95 % of control | dose: 400.0 mg/kg/injection, schedule: Q01DX009 (ip), vehicle: Klucel (hydroxypropylcellulose) (HPC) 98 % of control | [12] 90 % of control

CCC(C)(c1ccc(O)cc1)c1ccc(O)cc1
inactive: dose: 100.0 mg/kg/injection, schedule: Q04DX002 (ip), vehicle: saline 103 % of control | dose: 200.0 mg/kg/injection, schedule: Q04DX002 (ip), vehicle: saline 97 % of control | dose: 400.0 mg/kg/injection, schedule: Q04DX002 (ip), vehicle: saline 103 % of control

COCCC(=O)COC
inactive: dose: 50.0 mg/kg/injection, schedule: Q01DX001 (ip), vehicle: saline 97 % of control | [1] 95 % of control | [2] 91 % of control | [3] 95 % of control

O=C1Nc2ccccc2C1=Nc1cccc2ncccc12
inactive: dose: 100.0 mg/kg/injection, schedule: Q01DX001 (ip), vehicle: acetone 97 % of control | dose: 200.0 mg/kg/injection, schedule: Q01DX001 (ip), vehicle: acetone 93 % of control | dose: 400.0 mg/kg/injection, schedule: Q01DX001 (ip), vehicle: acetone 100 % of control

Cc1nc(C(=O)NN)co1
inactive: dose: 5.0 mg/kg/injection, schedule: Q01DX001 (ip), vehicle: saline 106 % of control | dose: 10.0 mg/kg/injection, schedule: Q01DX001 (ip), vehicle: saline 110 % of control | dose: 20.0 mg/kg/injection, schedule: Q01DX001 (ip), vehicle: saline 101 % of control | dose: 40.0 mg/kg/injection, schedule: Q01DX001 (ip), vehicle: saline 101 % of control | dose: 80.0 mg/kg/injection, schedule: Q01DX001 (ip), vehicle: saline 104 % of control | [1] 98 % of control

O=c1[nH]ccc2c(O)cccc12
inactive: [9] 95 % of control | dose: 50.0 mg/kg/injection, schedule: Q04DX003 (ip), vehicle: saline with Tween-80 101 % of control | [10] 97 % of control | [4] 101 % of control | [11] 90 % of control | [5] 94 % of control

CCCCCCCCCCCCCCCOc1ccc(C=Nc2ccc(C)cc2)cc1
inactive: [7] 93 % of control | [8] 102 % of control | [12] 102 % of control
